Results on eight molecules are retold here after BindingDB's records for doi:10.1002/cmdc.200500009 (Bayer Healthcare, 2006).

A value given as a limit tells only on which side of the number the result lay.

The term IC50 denotes the point on the concentration scale where inhibition reaches its midpoint.

The experiment concerns the target T1, Endothelin-converting enzyme 1 (Rattus norvegicus, UniProt P42893).
T1 sequence (P42893 whole entry): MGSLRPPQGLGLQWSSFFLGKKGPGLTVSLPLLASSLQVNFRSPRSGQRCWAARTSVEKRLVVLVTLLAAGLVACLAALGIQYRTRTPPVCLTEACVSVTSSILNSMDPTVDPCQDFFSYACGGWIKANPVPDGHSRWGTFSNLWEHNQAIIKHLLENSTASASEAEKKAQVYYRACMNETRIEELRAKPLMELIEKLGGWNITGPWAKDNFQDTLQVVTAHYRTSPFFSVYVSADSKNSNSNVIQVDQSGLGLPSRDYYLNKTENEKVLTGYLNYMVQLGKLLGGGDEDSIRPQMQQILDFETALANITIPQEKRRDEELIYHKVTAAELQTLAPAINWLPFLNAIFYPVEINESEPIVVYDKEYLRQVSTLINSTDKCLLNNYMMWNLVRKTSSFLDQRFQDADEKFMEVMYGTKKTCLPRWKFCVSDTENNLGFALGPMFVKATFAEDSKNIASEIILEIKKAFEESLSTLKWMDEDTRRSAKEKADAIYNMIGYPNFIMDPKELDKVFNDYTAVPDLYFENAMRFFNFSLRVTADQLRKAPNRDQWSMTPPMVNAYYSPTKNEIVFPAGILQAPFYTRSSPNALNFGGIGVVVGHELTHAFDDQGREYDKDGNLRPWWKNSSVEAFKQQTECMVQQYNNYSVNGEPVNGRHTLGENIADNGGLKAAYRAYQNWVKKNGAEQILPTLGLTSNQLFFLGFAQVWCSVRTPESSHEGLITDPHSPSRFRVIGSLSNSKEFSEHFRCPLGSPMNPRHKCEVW
Nature of the experiment: Inhibition Assay. The source says: Inhibition assay using ECE.
Consider `CC(C)(C)CC(=O)Nc1ccc2c(c1)cc(C(=O)Nc1nc3ccccc3[nH]1)n2Cc1ccccc1F` [ECE Inhibitor, 8], for which the IC50 was > 10000 nM.
`CC(C)(C)CC(=O)Nc1ccc2c(c1)cc(C(=O)Nc1cccc(C(=O)Nc3ccc(S(N)(=O)=O)cc3)c1)n2Cc1ccccc1F` came in with an IC50 of 10 nM.
The same measure for `CC(C)(C)CC(=O)Nc1ccc2c(c1)cc(C(=O)Nc1ccn[nH]1)n2Cc1ccccc1F`: > 10000 nM; for `CC(C)(C)CC(=O)Nc1ccc2c(c1)cc(C(=O)Nc1ccc(S(=O)(=O)Nc3ccccn3)cc1)n2Cc1ccccc1F` [ECE Inhibitor, 10]: 410 nM; for `CC(C)(C)CC(=O)Nc1ccc2c(c1)cc(C(=O)Nc1cncc(C(=O)O)c1)n2Cc1ccccc1F` [ECE Inhibitor, 13]: 180 nM.
With `CC(C)(C)CC(=O)Nc1ccc2c(c1)cc(C(=O)Nc1cncc(C(=O)Nc3ccc(S(N)(=O)=O)cc3)c1)n2Cc1ccccc1F` [ECE Inhibitor, 14] the figure was 10 nM; with `CC(C)(C)CC(=O)Nc1ccc2c(c1)cc(C(=O)Nc1ccc(Cl)nc1)n2Cc1ccccc1F` [ECE Inhibitor, 9], 220 nM.
Consider `CC(C)(C)CC(=O)Nc1ccc2c(c1)cc(C(=O)Nc1ccccc1)n2Cc1ccccc1F` [ECE Inhibitor, 6], for which the IC50 worked out at 1800 nM.
